In ChEMBL document CHEMBL3217615, “Novel 3,5-bis(arylidiene)-4-piperidone based monocarbonyl analogs of curcumin: anticancer activity evaluation and mode of action study” (2014):

Tests used:
Type in all cases: functional
HT-29 = experiment: Growth inhibition of human HT-29 cells assessed as cell growth at 10^-4 M after 48 hrs by sulforhodamine B assay; details: HT-29, 48 h, read-out: Activity
U-251 = experiment: Growth inhibition of human U251 cells after 48 hrs by sulforhodamine B assay; details: U-251, 48 h; for CC50: read-out: LC50 (the source's name)
[1] = Growth inhibition of human UACC257 cells assessed as cell growth at 10^-6 M after 48 hrs by sulforhodamine B assay; details: UACC-257, 48 h, read-out: Activity
HCT-116 = experiment: Growth inhibition of human HCT116 cells assessed as cell growth at 10^-6 M after 48 hrs by sulforhodamine B assay; details: HCT-116, 48 h, read-out: Activity
NCI-H522 [2] = experiment: Growth inhibition of human NCI-H522 cells assessed as cell growth at 10^-6 M after 48 hrs by sulforhodamine B assay; details: NCI-H522, 48 h, read-out: Activity
NCI-H226 = experiment: Growth inhibition of human NCI-H226 cells assessed as cell growth at 10^-8 M after 48 hrs by sulforhodamine B assay; details: NCI-H226, 48 h; for growth at 0.01 µM: read-out: Activity; for TGI: read-out: pTGI (converted)
Malme-3M = experiment: Growth inhibition of human MALME-3M cells assessed as cell growth at 10^-4 M after 48 hrs by sulforhodamine B assay; details: read-out: Activity
[3] = Growth inhibition of human HOP92 cells assessed as cell growth at 10^-4 M after 48 hrs by sulforhodamine B assay; details: HOP-92, 48 h, read-out: Activity
[4] = Growth inhibition of human UACC62 cells assessed as cell growth at 10^-4 M after 48 hrs by sulforhodamine B assay; details: UACC-62, 48 h, read-out: Activity
SN12C [5] = experiment: Growth inhibition of human SN12C cells after 48 hrs by sulforhodamine B assay; details: for CC50: read-out: LC50 (the source's name)
DU-145 = experiment: Growth inhibition of human DU145 cells assessed as cell growth at 10^-6 M after 48 hrs by sulforhodamine B assay; details: DU-145, 48 h, read-out: Activity
ACHN = experiment: Growth inhibition of human ACHN cells assessed as cell growth at 10^-7 M after 48 hrs by sulforhodamine B assay; details: read-out: Activity
[6] = Growth inhibition of human LOXIMVI cells assessed as cell growth at 10^-8 M after 48 hrs by sulforhodamine B assay; details: LOX IMVI; for growth at 0.01 µM: read-out: Activity; for TGI: read-out: pTGI (converted)
[7] = Growth inhibition of human LOXIMVI cells after 48 hrs by sulforhodamine B assay; details: LOX IMVI
[8] = Growth inhibition of human UO31 cells assessed as cell growth at 10^-7 M after 48 hrs by sulforhodamine B assay; details: UO-31, 48 h, read-out: Activity
786-0 = experiment: Growth inhibition of human 786-0 cells after 48 hrs by sulforhodamine B assay; details: 786-0, 48 h; for CC50: read-out: LC50 (the source's name)
[9] = Growth inhibition of human LOXIMVI cells assessed as cell growth at 10^-4 M after 48 hrs by sulforhodamine B assay; details: LOX IMVI, read-out: Activity
[10] = Growth inhibition of human SF295 cells after 48 hrs by sulforhodamine B assay; details: SF-295, 48 h; for CC50: read-out: LC50 (the source's name)
[11] = Growth inhibition of human SF295 cells assessed as cell growth at 10^-5 M after 48 hrs by sulforhodamine B assay; details: SF-295, 48 h, read-out: Activity
[12] = Growth inhibition of human HOP92 cells after 48 hrs by sulforhodamine B assay; details: HOP-92, 48 h; for CC50: read-out: LC50 (the source's name)
HOP-62 = experiment: Growth inhibition of human HOP62 cells assessed as cell growth at 10^-8 M after 48 hrs by sulforhodamine B assay; details: HOP-62, 48 h; for growth at 0.01 µM: read-out: Activity; for TGI: read-out: pTGI (converted)
T47D = experiment: Growth inhibition of human T47D cells assessed as cell growth at 10^-7 M after 48 hrs by sulforhodamine B assay; details: read-out: Activity
NCI-H522 [13] = experiment: Growth inhibition of human NCI-H522 cells after 48 hrs by sulforhodamine B assay; details: NCI-H522, 48 h; for CC50: read-out: LC50 (the source's name)
[14] = Growth inhibition of human SF295 cells assessed as cell growth at 10^-7 M after 48 hrs by sulforhodamine B assay; details: SF-295, 48 h, read-out: Activity
NCI-H23 [15] = experiment: Growth inhibition of human NCI-H23 cells assessed as cell growth at 10^-4 M after 48 hrs by sulforhodamine B assay; details: NCI-H23, 48 h, read-out: Activity
NCI-H23 [16] = experiment: Growth inhibition of human NCI-H23 cells after 48 hrs by sulforhodamine B assay; details: NCI-H23, 48 h; for CC50: read-out: LC50 (the source's name)
[17] = Growth inhibition of human BT549 cells assessed as cell growth at 10^-8 M after 48 hrs by sulforhodamine B assay; details: BT-549, 48 h; for growth at 0.01 µM: read-out: Activity; for TGI: read-out: pTGI (converted)
NCI-H522 [18] = experiment: Growth inhibition of human NCI-H522 cells assessed as cell growth at 10^-8 M after 48 hrs by sulforhodamine B assay; details: NCI-H522, 48 h; for growth at 0.01 µM: read-out: Activity; for CC50: read-out: pLC50 (the source's name) (converted); for TGI: read-out: pTGI (converted)
M14 = experiment: Growth inhibition of human M14 cells assessed as cell growth at 10^-7 M after 48 hrs by sulforhodamine B assay; details: M14, 48 h, read-out: Activity
SN12C [19] = experiment: Growth inhibition of human SN12C cells assessed as cell growth at 10^-6 M after 48 hrs by sulforhodamine B assay; details: read-out: Activity
[20] = Growth inhibition of human BT549 cells assessed as cell growth at 10^-4 M after 48 hrs by sulforhodamine B assay; details: BT-549, 48 h, read-out: Activity
SK-MEL-28 = experiment: Growth inhibition of human SK-MEL-28 cells assessed as cell growth at 10^-7 M after 48 hrs by sulforhodamine B assay; details: SK-MEL-28, 48 h, read-out: Activity
[21] = Growth inhibition of human HCC2998 cells after 48 hrs by sulforhodamine B assay; details: HCC 2998, 48 h; for CC50: read-out: LC50 (the source's name)
MDA-MB-468 = experiment: Growth inhibition of human MDA-MB-468 cells assessed as cell growth at 10^-6 M after 48 hrs by sulforhodamine B assay; details: MDA-MB-468, 48 h, read-out: Activity

## O=C1/C(=C/c2ccc(Cl)cc2Cl)CN(S(=O)(=O)c2ccccc2)C/C1=C\c1ccc(Cl)cc1Cl
HT-29
  growth at 100 µM: -16%
U-251
  GI50: 173 nM
  TGI: 373 nM
  CC50: 805 nM
[1]
  growth at 1 µM: 86%
HCT-116
  growth at 1 µM: -56%
NCI-H522 [2]
  growth at 1 µM: 47%
NCI-H226
  GI50: 1050 nM
  LC50: 7940 nM
  growth at 0.01 µM: 92%
  TGI: 2880 nM
Malme-3M
  growth at 100 µM: 22%
[3]
  growth at 100 µM: -20%
[4]
  growth at 100 µM: -71%
SN12C [5]
  GI50: 245 nM
  TGI: 718 nM
  CC50: > 100000 nM
DU-145
  growth at 1 µM: 18%
ACHN
  growth at 0.1 µM: 96%
[6]
  GI50: 204 nM
  growth at 0.01 µM: 95%
  TGI: 513 nM
[7]
  GI50: 203 nM
  TGI: 508 nM
[8]
  growth at 0.1 µM: 93%
786-0
  GI50: 241 nM
  TGI: 544 nM
  CC50: 1710 nM
[9]
  growth at 100 µM: -48%
[10]
  GI50: 345 nM
  TGI: 6670 nM
  CC50: > 100000 nM
[11]
  growth at 10 µM: -3%
[12]
  GI50: 1700 nM
  TGI: 5550 nM
  CC50: > 100000 nM
HOP-62
  GI50: 389 nM
  LC50 (concentration killing 50% of cells): > 100000 nM
  growth at 0.01 µM: 103%
  TGI: > 100000 nM
T47D
  growth at 0.1 µM: 96%
NCI-H522 [13]
  GI50: 854 nM
  TGI: 2990 nM
  CC50: 9730 nM
[14]
  growth at 0.1 µM: 93%
NCI-H23 [15]
  growth at 100 µM: -28%
NCI-H23 [16]
  GI50: 423 nM
  TGI: 2710 nM
  CC50: > 100000 nM
[17]
  GI50: 977 nM
  LC50: > 100000 nM
  growth at 0.01 µM: 106%
  TGI: 4170 nM
NCI-H522 [18]
  GI50: 851 nM
  growth at 0.01 µM: 95%
  CC50: 9770 nM
  TGI: 3020 nM
M14
  growth at 0.1 µM: 104%
SN12C [19]
  growth at 1 µM: -15%
[20]
  growth at 100 µM: -42%
SK-MEL-28
  growth at 0.1 µM: 93%
[21]
  GI50: 383 nM
  TGI: 1360 nM
  CC50: 4540 nM
MDA-MB-468
  growth at 1 µM: 55%

## Cc1ccc(S(=O)(=O)N2C/C(=C\c3cc(F)cc(F)c3)C(=O)/C(=C/c3cc(F)cc(F)c3)C2)cc1
HT-29
  growth at 100 µM: -75%
U-251
  GI50: 188 nM
  TGI: 530 nM
  CC50: 2020 nM
[1]
  growth at 1 µM: 49%
HCT-116
  growth at 1 µM: -32%
NCI-H522 [2]
  growth at 1 µM: -2%
NCI-H226
  GI50: 8710 nM
  LC50: > 100000 nM
  growth at 0.01 µM: 97%
  TGI: 39800 nM
Malme-3M
  growth at 100 µM: -78%
[3]
  growth at 100 µM: -58%
[4]
  growth at 100 µM: -98%
SN12C [5]
  GI50: 342 nM
  TGI: 1310 nM
  CC50: 4260 nM
DU-145
  growth at 1 µM: 62%
ACHN
  growth at 0.1 µM: 99%
[6]
  GI50: 174 nM
  growth at 0.01 µM: 97%
  TGI: 339 nM
[6]; read-out: pLC50 (the source's name) (converted)
  CC50: 661 nM
[7]
  GI50: 175 nM
  TGI: 339 nM
[7]; read-out: LC50 (the source's name)
  CC50: 656 nM
[8]
  growth at 0.1 µM: 94%
786-0
  GI50: 587 nM
  TGI: 1910 nM
  CC50: 4950 nM
[9]
  growth at 100 µM: -98%
[10]
  GI50: 466 nM
  TGI: 2500 nM
  CC50: 15700 nM
[11]
  growth at 10 µM: -44%
[12]
  GI50: 1110 nM
  TGI: 3300 nM
  CC50: 9780 nM
HOP-62
  GI50: 2040 nM
  LC50 (concentration killing 50% of cells): 11700 nM
  growth at 0.01 µM: 98%
  TGI: 4680 nM
T47D
  growth at 0.1 µM: 101%
NCI-H522 [13]
  GI50: 316 nM
  TGI: 962 nM
  CC50: 3850 nM
[14]
  growth at 0.1 µM: 92%
NCI-H23 [15]
  growth at 100 µM: -72%
NCI-H23 [16]
  GI50: 1750 nM
  TGI: 4990 nM
  CC50: 26800 nM
[17]
  GI50: 339 nM
  LC50: 3550 nM
  growth at 0.01 µM: 102%
  TGI: 933 nM
NCI-H522 [18]
  GI50: 316 nM
  growth at 0.01 µM: 100%
  CC50: 3890 nM
  TGI: 955 nM
M14
  growth at 0.1 µM: 98%
SN12C [19]
  growth at 1 µM: 11%
[20]
  growth at 100 µM: -95%
SK-MEL-28
  growth at 0.1 µM: 93%
[21]
  GI50: 602 nM
  TGI: 1910 nM
  CC50: 4850 nM
MDA-MB-468
  growth at 1 µM: 22%
